{
  "source": "patent US11400059B2",
  "about": "“Treatment of pain and/or pain related symptoms associated with dysmenorrhea” (ALYRA BIOTECH PTY LTD, priority 2017, dated 2022)",
  "test_in_all_cases": "Human TLR antagonist screening, NF-κB SEAP reporter in HEK293 cells",
  "assay_type_in_all_cases": "cell-based",
  "key": {"Human TLR8": {"target": "T1, Human TLR8 (Homo sapiens, UniProt Q9NR97)", "T1 construct": "expressed in transfected cells; host or cells: HEK293", "T1 sequence (Q9NR97 27-1041)": "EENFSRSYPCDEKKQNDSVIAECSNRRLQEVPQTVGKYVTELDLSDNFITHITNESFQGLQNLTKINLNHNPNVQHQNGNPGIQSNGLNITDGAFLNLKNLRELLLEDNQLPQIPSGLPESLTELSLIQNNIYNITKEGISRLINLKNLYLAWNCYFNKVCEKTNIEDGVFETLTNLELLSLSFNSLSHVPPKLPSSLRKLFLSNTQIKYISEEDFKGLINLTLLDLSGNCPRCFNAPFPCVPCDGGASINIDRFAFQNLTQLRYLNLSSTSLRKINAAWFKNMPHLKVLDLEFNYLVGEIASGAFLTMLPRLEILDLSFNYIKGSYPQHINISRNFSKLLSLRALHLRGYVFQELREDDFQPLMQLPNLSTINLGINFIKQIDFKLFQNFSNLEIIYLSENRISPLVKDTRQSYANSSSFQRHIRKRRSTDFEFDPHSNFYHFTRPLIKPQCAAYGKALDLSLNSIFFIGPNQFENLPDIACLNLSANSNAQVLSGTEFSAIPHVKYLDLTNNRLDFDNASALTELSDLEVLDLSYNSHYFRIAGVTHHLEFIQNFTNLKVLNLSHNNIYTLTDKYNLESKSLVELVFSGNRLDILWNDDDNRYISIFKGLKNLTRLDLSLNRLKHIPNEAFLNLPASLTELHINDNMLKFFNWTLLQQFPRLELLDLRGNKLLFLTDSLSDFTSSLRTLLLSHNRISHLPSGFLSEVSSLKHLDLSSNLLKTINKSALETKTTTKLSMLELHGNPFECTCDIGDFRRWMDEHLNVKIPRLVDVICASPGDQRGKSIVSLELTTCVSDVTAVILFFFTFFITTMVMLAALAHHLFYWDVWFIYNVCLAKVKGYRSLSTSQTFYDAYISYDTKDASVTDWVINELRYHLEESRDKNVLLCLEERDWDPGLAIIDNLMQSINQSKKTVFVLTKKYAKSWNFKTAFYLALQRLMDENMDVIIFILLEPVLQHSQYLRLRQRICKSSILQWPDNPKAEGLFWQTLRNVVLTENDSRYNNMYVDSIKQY", "conditions": "antagonist mode, test article 1 μM, +CL075 200 ng/ml, No Sample 13, Control− 1", "method": "(§1) Toll-Like Receptor (TLR), NOD-Like Receptor (NLR) and C-Type Lectin Receptor (CLR) stimulation were tested by assessing NF-κB activation in HEK293 cells expressing a given TLR, NLR or CLR. The activity of the test articles was tested at one concentration and compared to control ligands. These steps were performed in triplicate. hTLR8: […] In a 96-well plate (200 μL total volume) containing the appropriate cells (50,000-75,000 cells/well), 20 μL of the test article or the positive control ligand was added to the wells. For the antagonist assay, the test article was incubated with the cells, at 37° C. with 5% CO2, for 30 minutes prior to the addition of the positive control ligand to the wells. The media added to the wells was designed for the detection of NF-κB induced SEAP expression. After a 16-24 hr incubation the optical density (OD) was read at 650 nm on a Molecular Devices SpectraMax 340PC absorbance detector. Fold induction (ratio of average induced value to average non-induced value) was determined for each TLR, NOD1, NOD2, Dectin-1a, Dectin-1b."}, "Human TLR2": {"target": "T2, Human TLR2 (Homo sapiens, UniProt O60603)", "T2 construct": "expressed in transfected cells; host or cells: HEK293", "T2 sequence (O60603 21-784)": "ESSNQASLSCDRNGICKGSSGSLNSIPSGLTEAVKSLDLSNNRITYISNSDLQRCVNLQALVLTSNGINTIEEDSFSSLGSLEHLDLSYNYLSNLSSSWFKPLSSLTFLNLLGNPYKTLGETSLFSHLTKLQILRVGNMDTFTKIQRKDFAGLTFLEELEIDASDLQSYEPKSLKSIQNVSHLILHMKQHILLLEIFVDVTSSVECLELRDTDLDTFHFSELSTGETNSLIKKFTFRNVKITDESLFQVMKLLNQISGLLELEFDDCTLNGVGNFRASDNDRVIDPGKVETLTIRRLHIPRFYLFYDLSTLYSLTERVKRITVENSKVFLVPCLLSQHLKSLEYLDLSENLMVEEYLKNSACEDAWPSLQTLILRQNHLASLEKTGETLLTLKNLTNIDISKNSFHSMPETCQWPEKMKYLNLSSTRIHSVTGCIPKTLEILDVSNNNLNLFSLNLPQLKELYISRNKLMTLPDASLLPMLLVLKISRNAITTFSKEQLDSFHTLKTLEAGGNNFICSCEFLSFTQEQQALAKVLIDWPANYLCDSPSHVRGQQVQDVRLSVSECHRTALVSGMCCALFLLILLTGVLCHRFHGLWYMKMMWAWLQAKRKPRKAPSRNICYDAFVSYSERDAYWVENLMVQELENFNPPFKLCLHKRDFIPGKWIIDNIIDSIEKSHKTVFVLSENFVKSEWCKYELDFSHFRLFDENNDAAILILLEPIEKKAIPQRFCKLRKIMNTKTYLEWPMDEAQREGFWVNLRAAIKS", "conditions": "antagonist mode, test article 1 μM, +HKLM 1 × 10^6 cells/mL, No Sample 6, Control− 1", "method": "Toll-Like Receptor (TLR), NOD-Like Receptor (NLR) and C-Type Lectin Receptor (CLR) stimulation were tested by assessing NF-κB activation in HEK293 cells expressing a given TLR, NLR or CLR. The activity of the test articles was tested at one concentration and compared to control ligands. These steps were performed in triplicate. TLR2: […] Antagonist: 1×10^6 cells/mL: In a 96-well plate (200 μL total volume) containing the appropriate cells (50,000-75,000 cells/well), 20 μL of the test article or the positive control ligand was added to the wells. For the antagonist assay, the test article was incubated with the cells, at 37° C. with 5% CO2, for 30 minutes prior to the addition of the positive control ligand to the wells. The media added to the wells was designed for the detection of NF-κB induced SEAP expression. After a 16-24 hr incubation the optical density (OD) was read at 650 nm on a Molecular Devices SpectraMax 340PC absorbance detector. Fold induction (ratio of average induced value to average non-induced value) was determined for each TLR, NOD1, NOD2, Dectin-1a, Dectin-1b."}, "hTLR5": {"target": "T3, hTLR5 (Homo sapiens, UniProt O60602)", "T3 construct": "expressed in transfected cells; host or cells: HEK293", "T3 sequence (O60602 21-858)": "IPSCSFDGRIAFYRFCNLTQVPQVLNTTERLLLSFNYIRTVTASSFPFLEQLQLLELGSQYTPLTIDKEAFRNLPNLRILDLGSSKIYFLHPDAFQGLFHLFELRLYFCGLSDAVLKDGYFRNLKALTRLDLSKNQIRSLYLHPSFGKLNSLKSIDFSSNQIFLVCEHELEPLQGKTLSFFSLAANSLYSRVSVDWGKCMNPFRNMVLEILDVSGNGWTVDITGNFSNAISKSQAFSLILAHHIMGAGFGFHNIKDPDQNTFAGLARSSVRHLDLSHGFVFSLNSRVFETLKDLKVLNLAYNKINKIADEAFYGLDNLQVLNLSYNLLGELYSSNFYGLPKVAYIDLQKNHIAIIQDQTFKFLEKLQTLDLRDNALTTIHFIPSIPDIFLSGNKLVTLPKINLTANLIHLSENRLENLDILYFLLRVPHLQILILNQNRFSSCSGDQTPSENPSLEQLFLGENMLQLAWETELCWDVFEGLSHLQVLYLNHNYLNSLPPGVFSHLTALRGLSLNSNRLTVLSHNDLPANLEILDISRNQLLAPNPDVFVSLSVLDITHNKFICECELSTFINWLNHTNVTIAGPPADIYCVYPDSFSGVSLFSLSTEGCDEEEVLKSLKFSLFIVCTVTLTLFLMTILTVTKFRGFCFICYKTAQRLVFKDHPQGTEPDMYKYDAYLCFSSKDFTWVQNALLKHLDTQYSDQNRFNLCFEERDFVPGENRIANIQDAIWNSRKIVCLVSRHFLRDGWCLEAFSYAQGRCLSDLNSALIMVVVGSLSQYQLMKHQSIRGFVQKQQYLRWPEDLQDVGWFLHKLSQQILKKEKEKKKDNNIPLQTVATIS", "conditions": "antagonist mode, test article 1 μM, +FLA-ST 50 ng/ml, No Sample 34, Control− 1", "method": "as §1, with “triplicate.” for “triplicate. hTLR8:”, “After a 16-24 hr incubation the optical density (OD) was read at 650 nm on a Molecular Devices SpectraMax 340PC absorbance detector.” left out"}},
  "data": [
    {"smiles": "CN(C)CCC=C1c2ccccc2CCc2ccccc21", "note": "[Amitriptyline]", "values": [
      {"measurement": "Fold Induction", "setting": "Human TLR8", "value": "slight inhibitory effect"},
      {"measurement": "Fold Induction", "setting": "Human TLR8; listed as Ami", "value": 11},
      {"measurement": "Fold Induction", "setting": "Human TLR2", "value": "slight inhibitory effect"},
      {"measurement": "Fold Induction", "setting": "Human TLR2; listed as Ami", "value": 5},
      {"measurement": "Fold Induction", "setting": "hTLR5", "value": "slight inhibitory effect"},
      {"measurement": "Fold Induction", "setting": "hTLR5; listed as Ami", "value": 33}
    ]},
    {"smiles": "CNCCC=C1c2ccccc2CCc2ccccc21", "note": "[Nortriptyline]", "values": [
      {"measurement": "Fold Induction", "setting": "Human TLR8", "value": "slight inhibitory effect"},
      {"measurement": "Fold Induction", "setting": "Human TLR8; listed as Nor", "value": 11},
      {"measurement": "Fold Induction", "setting": "Human TLR2", "value": "slight inhibitory effect"},
      {"measurement": "Fold Induction", "setting": "Human TLR2; listed as Nor", "value": 5},
      {"measurement": "Fold Induction", "setting": "hTLR5", "value": 34}
    ]}
  ]
}
